Key:
AGA Model = assay: Macroscopic blind assessment of hair growth in DHT-induced AGA model mice (Example 5); type: in vivo, C57BL6 mice (males); settings: male mice, day 21, intradermal on day 0 and day 3, ATP 100 μM
Experimental: The compositions for promoting hair growth of the invention were tested in vivo in mice, according to the following procedure.
A total of 45 6-week-old C57BL6 mice (males) from Charles River Laboratories were used.
The animals were acclimatized for 6 days, and they were administered 1 mg of DHT (5α-androstan-17β-ol-3-one, Sigma) in 100 μL of 50% DMSO (Merck)/50% Isotonic Saline Serum (Fresenius Kabi) subcutaneously for […] (5 days a week), resulting 19 administrations, instead of 20, because the dose was omitted on day 21, when the final assessment of hair growth took place. The administration of DHT began at day-4 of the testing.
The concentration of ATP in Groups 3, 4, 5 and 6 was 100 μM.
After 4 days of administration of the DHT solution (day 0), the target area was depilated using an electric shaver in the area delimited by a template. Subsequently, depilatory cream was applied with the aim of uniformizing the beginning of the anagen phase in all mice. This procedure was performed using inhalation sedation with 2% Isoflurane, maintaining the body temperature of the animals with an electric blanket and an infrared lamp. (FIG. 1). […]

hair follicle cultures = settings: between ATP and adenosine; cited from earlier work
androgen receptors = settings: hair follicles; cited from earlier work

Nc1ncnc2c1ncn2[C@@H]1O[C@H](COP(=O)(O)OP(=O)(O)OP(=O)(O)O)[C@@H](O)[C@H]1O [ATP non-encapsulated, adenosine triphosphate]
hair growth level: Intense (% of mice) (AGA Model; ADSCs high 4 × 10^6, low 1 × 10^6): 80% | hair growth level: Moderate (% of mice) (AGA Model; ADSCs high 4 × 10^6): 20%

Nc1ncnc2c1ncn2[C@@H]1O[C@H](COP(=O)(O)OP(=O)(O)OP(=O)(O)O)[C@@H](O)[C@H]1O [ATP, adenosine triphosphate]
synergistic action on hair growth of hair follicle cultures (hair follicle cultures): synergistic action

C[C@]12CCC(=O)C[C@@H]1CC[C@@H]1[C@@H]2CC[C@]2(C)[C@@H](O)CC[C@@H]12 [DHT, 5α-androstan-17β-ol-3-one]
affinity towards androgen receptors (androgen receptors): higher affinity towards androgen receptors in the hair follicles

Nc1ncnc2c1ncn2[C@@H]1O[C@H](CO)[C@@H](O)[C@H]1O [adenosine]
synergistic action on hair growth of hair follicle cultures (hair follicle cultures): synergistic action
